≈ marks a conversion by molar mass, not a printed value. Entries after “also recorded” stand apart in the source; their conditions may differ. Read-outs that look alike come from different tables or passages of the source. Each block holds one compound with its values, some of them ahead of it.
Tests used:
[1] = tested on: K. pneumoniae clinical isolates; assay: RNA-Seq transcriptional response to antibiotic exposure, GO term enrichment; type: cell-based, Klebsiella pneumoniae; conditions: CLSI breakpoint concentration, 0, 10, 30, 60 minutes
Text: (§1) Fisher's combined probability test was used to select only those genes whose expression after antibiotic treatment was statistically distinguishable from its expression at any timepoint in the untreated samples. Gene ontology (GO) terms were assigned using blast2GO (version 1.4.4), with hypergeometric testing for enrichment. For each pathogen-antibiotic pair, the fold-change threshold in DESeq2 used to test statistical significance was increased to select 60-100 antibiotic-responsive transcripts with maximal stringency, a number readily accommodated by the NanoString® assay format. […] As with responsive genes, the fold-change threshold was varied in order to select the top 10-20 control transcripts. […] See Supplemental Methods sections below for further details.
(§2) After antibiotic treatment as described in the above Materials and Methods section, cells were pelleted, resuspended in 0.5 mL Trizol reagent (ThermoFisher Scientific), transferred to 1.5 mL screw-cap tubes containing 0.25 mL of 0.1 mm diameter Zirconia/Silica beads (BioSpec Products), and lysed mechanically via bead-beating for 3-5 one-minute cycles on a Minibeadbeater-16 (BioSpec) or one 90-second cycle at 10 m/sec on a FastPrep (MP Bio). After addition of 0.1 mL chloroform, each sample tube was mixed thoroughly by inversion, incubated for 3 minutes at room temperature, and centrifuged at 12,000×g for 15 minutes at 4° C. […]

[2] = tested on: E. coli clinical isolates; assay: Standard broth microdilution MIC; type: cell-based, Escherichia coli; conditions: for MIC: Escherichia coli
Text: (§3) All strains in this study (Table 7) were obtained from clinical or reference microbiological laboratories, including both local hospitals and MDRO strain collections from the Centers for Disease Control's Antibiotic Resistance Isolate Bank (see e.g., World Wide Web at (www).cdc.gov/ARIsolateBank/) and the New York State Department of Health.

[3] = tested on: E. coli clinical isolates; assay: RNA-Seq transcriptional response to antibiotic exposure, GO term enrichment; type: cell-based, Escherichia coli; conditions: CLSI breakpoint concentration, 0, 10, 30, 60 minutes
[4] = tested on: A. baumannii clinical isolates; assay: as above; type: cell-based, Acinetobacter baumannii; conditions: CLSI breakpoint concentration, 0, 10, 30, 60 minutes
Text: as §1, §2

[5] = tested on: K. pneumoniae clinical isolates; assay: Standard broth microdilution MIC; type: cell-based, Klebsiella pneumoniae
Text: as §3

[6] = tested on: S. aureus clinical isolates; assay: Standard broth microdilution MIC; type: cell-based; conditions: Staphylococcus aureus, read-out: levo MIC
Text: as §3

SMILES: C[C@@H](O)[C@H]1C(=O)N2C(C(=O)O)=C(S[C@@H]3CN[C@H](C(=O)N(C)C)C3)[C@H](C)[C@H]12 [meropenem]
Gene ontology enrichment of antibiotic-responsive transcripts [1]: affected lipopolysaccharide biosynthesis
MIC ([2]; BAA2523, E. coli BAA2523 (blaOXA-48), inoculum of 10^7 cfu/mL): ≥ 32 µg/mL
MIC ([2]; BAA2523, E. coli BAA2523 (blaOXA-48), standard broth microdilution, inoculum of 10^5 cfu/mL): 0.5 to 1 µg/mL (≈ 1.3 to 2.61 µM)
MIC ([2]; E. coli AR0104 (blaKPC-4), inoculum of 10^7 cfu/mL): ≥ 32 µg/mL
MIC ([2]; E. coli AR0104 (blaKPC-4), standard broth microdilution, inoculum of 10^5 cfu/mL): 0.5 to 1 µg/mL (≈ 1.3 to 2.61 µM)
Gene ontology enrichment of antibiotic-responsive transcripts [3]: affected lipopolysaccharide biosynthesis; also recorded: induced a heat shock response
Gene ontology enrichment of antibiotic-responsive transcripts [4]: induced a heat shock response

SMILES: C[C@@H](O)[C@H]1C(=O)N2C(C(=O)O)=C(S[C@@H]3CN[C@H](C(=O)N(C)C)C3)[C@H](C)[C@H]12 [mero]
mero MIC ([2]; EcMero strain AR0048): 32 mg/L
mero MIC ([2]; EcMero strain AR0055): 8 mg/L
mero MIC ([2]; EcMero strain AR0058): 0.25 mg/L
mero MIC ([2]; EcMero strain AR0061): 8 mg/L
mero MIC ([2]; EcMero strain AR0069): 16 mg/L
mero MIC ([2]; EcMero strain AR0077): 0.5 mg/L
mero MIC ([2]; EcMero strain AR0089): 0.5 mg/L
mero MIC ([2]; EcMero strain AR0104, value marked *): 1* mg/L
mero MIC ([2]; EcMero strain BAA2469): 16 mg/L
mero MIC ([2]; EcMero strain BAA2523 (RB553), value marked *): 0.5* mg/L
mero MIC ([2]; EcMero strain BIDMC_77): 0.5 mg/L
mero MIC ([2]; EcMero strain IDR1200024571): >32 mg/L
mero MIC ([2]; EcMero strain IDR1200039757): >32 mg/L
mero MIC ([2]; EcMero strain IDR1300027657): 1 mg/L
mero MIC ([2]; EcMero strain IDR1600029769): 8 mg/L
mero MIC ([2]; EcMero strain IDR1600035372): 0.5 mg/L
mero MIC ([5]; KpMero strain AR0034): 2 mg/L
mero MIC ([5]; KpMero strain AR0040): >32 mg/L
mero MIC ([5]; KpMero strain AR0041): 16 mg/L
mero MIC ([5]; KpMero strain AR0042): <0.5 mg/L
mero MIC ([5]; KpMero strain AR0043): 2 mg/L
mero MIC ([5]; KpMero strain AR0044): 4 mg/L
mero MIC ([5]; KpMero strain AR0047): 4 mg/L
mero MIC ([5]; KpMero strain AR0075): 8 mg/L
mero MIC ([5]; KpMero strain AR0087): 1 mg/L
mero MIC ([5]; KpMero strain AR0135): 8 mg/L
mero MIC ([5]; KpMero strain AR0139): 32 mg/L
mero MIC ([5]; KpMero strain BAA2524 (RB554), value marked *): 0.5* mg/L
mero MIC ([5]; KpMero strain BIDMC_14): 16 mg/L
mero MIC ([5]; KpMero strain BIDMC_22): 0.25 mg/L
mero MIC ([5]; KpMero strain BIDMC_31): 0.125 mg/L
mero MIC ([5]; KpMero strain BIDMC_35): >32 mg/L
mero MIC ([5]; KpMero strain BIT-03): 8 mg/L
mero MIC ([5]; KpMero strain BIT-04): 32 mg/L
mero MIC ([5]; KpMero strain BIT-05): >32 mg/L
mero MIC ([5]; KpMero strain BIT-12): <0.5 mg/L
mero MIC ([5]; KpMero strain BIT-16): ≤0.5 mg/L
mero MIC ([5]; KpMero strain BWH_2): 16 mg/L
mero MIC ([5]; KpMero strain BWH_15): 8 mg/L
mero MIC ([5]; KpMero strain BWH_30): ≤0.5 mg/L
mero MIC ([5]; KpMero strain BWH_36): 16 mg/L
mero MIC ([5]; KpMero strain CDC_1500610): ≤0.5 mg/L
mero MIC ([5]; KpMero strain IDR1200023303): >32 mg/L
mero MIC ([5]; KpMero strain IDR1600031102-01-00): >32 mg/L
mero MIC ([5]; KpMero strain IDR1600037310): 1 mg/L
mero MIC ([5]; KpMero strain IDR1600057468-01-00): 4 mg/L
mero MIC ([5]; KpMero strain MGH_17): ≤0.5 mg/L
mero MIC ([5]; KpMero strain MGH_18): ≤0.5 mg/L
mero MIC ([5]; KpMero strain MGH_19): ≤0.5 mg/L
mero MIC ([5]; KpMero strain MGH_20): ≤0.5 mg/L
mero MIC ([5]; KpMero strain MGH_31): 8 mg/L
mero MIC ([5]; KpMero strain MGH_35): 2 mg/L
mero MIC ([5]; KpMero strain MGH_36): ≤0.5 mg/L
mero MIC ([5]; KpMero strain MGH_39): 2 mg/L
mero MIC ([5]; KpMero strain MGH_48): ≤0.5 mg/L
mero MIC ([5]; KpMero strain MGH_71): 32 mg/L
mero MIC ([5]; KpMero strain RB039): ≤0.5 mg/L
mero MIC ([5]; KpMero strain RB041): ≤0.5 mg/L
mero MIC ([5]; KpMero strain RB042): ≤0.5 mg/L
mero MIC ([5]; KpMero strain UCI_7): 0.25 mg/L
mero MIC ([5]; KpMero strain UCI_19): >32 mg/L
mero MIC ([5]; KpMero strain UCI_37): 32 mg/L
mero MIC ([5]; KpMero strain UCI_38): ≤0.5 mg/L
mero MIC ([5]; KpMero strain UCI_44): 0.25 mg/L
mero MIC ([5]; KpMero strain UCI_61): 32 mg/L
mero MIC ([5]; KpMero strain UCI_64): 0.25 mg/L

MIC ([6]; S. aureus strain RB003): 0.125 µg/mL (≈ 0.346 µM)
MIC ([6]; S. aureus strain RB004): 32 µg/mL (≈ 88.6 µM)
MIC ([6]; S. aureus strain RB006): 0.06 µg/mL (≈ 0.166 µM)
MIC ([6]; S. aureus strain RB007): 16 µg/mL (≈ 44.3 µM)
MIC ([6]; S. aureus strain RB010): > 32 µg/mL
MIC ([6]; S. aureus strain RB045): 32 µg/mL (≈ 88.6 µM)
MIC ([6]; S. aureus strain RB047): > 32 µg/mL
MIC ([6]; S. aureus strain RB064): 8 µg/mL (≈ 22.1 µM)
MIC ([6]; S. aureus strain RB065): 0.06 µg/mL (≈ 0.166 µM)
MIC ([6]; S. aureus strain RB066): 0.06 µg/mL (≈ 0.166 µM)
MIC ([6]; S. aureus strain RB067): 0.13 µg/mL (≈ 0.36 µM)
MIC ([6]; S. aureus strain RB0069): 0.13 µg/mL (≈ 0.36 µM)
MIC ([6]; S. aureus strain RB072): 4 µg/mL (≈ 11.1 µM)
MIC ([6]; S. aureus strain RB074): 32 µg/mL (≈ 88.6 µM)
MIC ([6]; S. aureus strain RB090): 32 µg/mL (≈ 88.6 µM)
MIC ([6]; S. aureus strain RB095): 32 µg/mL (≈ 88.6 µM)
MIC ([6]; S. aureus strain RB096): 0.13 µg/mL (≈ 0.36 µM)
MIC ([6]; S. aureus strain RB098): 0.13 µg/mL (≈ 0.36 µM)
MIC ([6]; S. aureus strain RB211): 16 µg/mL (≈ 44.3 µM)
MIC ([6]; S. aureus strain RB219): 32 µg/mL (≈ 88.6 µM)
MIC ([6]; S. aureus strain RB221): 0.13 µg/mL (≈ 0.36 µM)
MIC ([6]; S. aureus strain RB223): 0.13 µg/mL (≈ 0.36 µM)
MIC ([6]; S. aureus strain RB245): 0.25 µg/mL (≈ 0.692 µM)
MIC ([6]; S. aureus strain RB247): 0.5 µg/mL (≈ 1.38 µM)
SMILES: C[C@H]1COc2c(N3CCN(C)CC3)c(F)cc3c(=O)c(C(=O)O)cn1c23 [levofloxacin]

— patent US12442035B2, “Compositions and methods for detecting antibiotic responsive mRNA expression signatures and uses thereof” (THE BROAD INSTITUTE, INC., priority 2018, dated 2025)
